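Exposure lasted 48 hours, with cells grown in 96-well plates and compounds tested at five concentrations. Abbreviation: GI50, concentration required for 50% inhibition of growth.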 The source made the active and inactive calls. No stated cut-off is given here; in the data, active = GI50 up to about 1.1 µM and inactive = higher.
Tests used:
Assay in all cases: NCI tumour cell line growth inhibition, 48 h
CAKI-1 = system: CAKI-1
DU-145 = system: DU-145
IGROV-1 = system: IGROV-1
LOX IMVI = system: LOX IMVI
MCF7 = system: MCF7
MDA-MB-231 = system: MDA-MB-231
MDA-N = system: MDA-N
MOLT-4 = system: MOLT-4
PC-3 = system: PC-3
RPMI-8226 = system: RPMI-8226
RXF 393 = system: RXF 393
SF-295 = system: SF-295
SK-OV-3 = system: SK-OV-3
SW-620 = system: SW-620
T47D = system: T47D
U-251 = system: U-251
UACC-257 = system: UACC-257
UACC-62 = system: UACC-62
HCC 2998 = system: HCC 2998
SK-MEL-28 = system: SK-MEL-28

Measured: GI50

Oc1ccc(-c2nc3ccc(F)cc3s2)cc1
inactive: CAKI-1 19.7 µM | DU-145 15.2 µM | IGROV-1 16.9 µM | LOX IMVI 20.4 µM | MCF7 17.5 µM | MDA-MB-231 20.8 µM | MDA-N 23.5 µM | MOLT-4 27 µM | PC-3 21.4 µM | RPMI-8226 35.7 µM | RXF 393 25.3 µM | SF-295 19.1 µM | SK-OV-3 18.2 µM | SW-620 29.9 µM | T47D 15.1 µM | U-251 19.2 µM | UACC-257 17.1 µM | UACC-62 17.6 µM

C/C=C(\C)[C@@H](O)C(=O)O[C@@H]1CC(C(C)(C)O)[C@](C)(CCC(=O)OC)[C@H]2[C@H](OC(=O)[C@H](O)[C@H](C)CC)C[C@]3(C)C(=CC[C@H]3[C@H]3CO[C@H](C=C(C)C)C3)[C@]12C (stereo partly specified)
inactive: CAKI-1 27.7 µM | DU-145 29 µM | HCC 2998 16.2 µM | IGROV-1 30.8 µM | LOX IMVI 17.6 µM | MCF7 19.3 µM | MDA-MB-231 19.6 µM | MDA-N 20 µM | MOLT-4 19.7 µM | PC-3 16.7 µM | RPMI-8226 15.3 µM | RXF 393 16.4 µM | SF-295 35.4 µM | SK-MEL-28 21.6 µM | SW-620 22.7 µM | T47D 25.7 µM | U-251 18.8 µM | UACC-257 20.7 µM

Cc1cc(S(=O)(=O)[N-]C(=C(C#N)C#N)[n+]2ccc(N(C)C)cc2)c(SCC(=O)O)cc1Cl
inactive: CAKI-1 > 100 µM | DU-145 > 100 µM | HCC 2998 > 100 µM | IGROV-1 > 100 µM | MCF7 > 100 µM | MDA-MB-231 > 100 µM | MDA-N > 100 µM | MOLT-4 > 100 µM | PC-3 > 100 µM | RPMI-8226 > 100 µM | RXF 393 > 100 µM | SF-295 > 100 µM | SK-MEL-28 > 100 µM | SK-OV-3 > 100 µM | T47D > 100 µM | U-251 > 100 µM | UACC-257 > 100 µM | UACC-62 > 100 µM

Cc1cc(C)c2c(n1)S(=O)(=O)N(CCCN1CCN(c3cccc(C(F)(F)F)c3)CC1)c1c-2nn(C)c1C
inactive: CAKI-1 43.1 µM | DU-145 > 100 µM | HCC 2998 > 100 µM | IGROV-1 55.2 µM | LOX IMVI 52.6 µM | MCF7 38.5 µM | MDA-MB-231 > 100 µM | MDA-N 39.9 µM | MOLT-4 10.8 µM | PC-3 25.9 µM | RXF 393 > 100 µM | SF-295 52.7 µM | SK-MEL-28 60 µM | SK-OV-3 > 100 µM | SW-620 > 100 µM | T47D > 100 µM | U-251 > 100 µM | UACC-257 32.5 µM | UACC-62 58.7 µM

C=CC[C@@]1([C@H](C=C)COCc2ccc(OC)cc2)CC[C@]2(C)OC(C)(C)[C@@H](c3ccccc3)N2C1=S
inactive: CAKI-1 > 100 µM | DU-145 54.5 µM | HCC 2998 44.8 µM | LOX IMVI 40.8 µM | MCF7 31.1 µM | MDA-MB-231 46.2 µM | MDA-N 49.5 µM | MOLT-4 52.4 µM | PC-3 31.4 µM | RPMI-8226 33.5 µM | RXF 393 86.7 µM | SF-295 43.1 µM | SK-MEL-28 57.1 µM | SK-OV-3 86.5 µM | SW-620 53 µM | T47D 37.3 µM | U-251 34.2 µM | UACC-257 34.8 µM | UACC-62 28.2 µM

COCCN1C(=O)C2c3[nH]c4ccccc4c3C3CCC(C(C)(C)C)CC3C2C1=O (stereo unspecified)
inactive: CAKI-1 23.1 µM | DU-145 19.1 µM | HCC 2998 19.3 µM | IGROV-1 23.2 µM | MCF7 18.4 µM | MDA-MB-231 17.3 µM | MDA-N 14.5 µM | MOLT-4 > 10 µM | PC-3 13.4 µM | RPMI-8226 15.2 µM | RXF 393 20.4 µM | SF-295 18.6 µM | SK-MEL-28 17.5 µM | SK-OV-3 20.2 µM | SW-620 17.3 µM | T47D 20 µM | U-251 15.5 µM | UACC-257 16.7 µM | UACC-62 > 10 µM

NNC(=O)CNc1cccc(Br)c1
inactive: CAKI-1 > 100 µM | DU-145 > 100 µM | HCC 2998 > 100 µM | IGROV-1 > 100 µM | LOX IMVI > 100 µM | MCF7 > 100 µM | MDA-MB-231 > 100 µM | MDA-N > 100 µM | PC-3 > 100 µM | RPMI-8226 > 100 µM | RXF 393 > 100 µM | SF-295 > 100 µM | SK-MEL-28 > 100 µM | SK-OV-3 > 100 µM | SW-620 > 100 µM | T47D > 100 µM | U-251 > 100 µM | UACC-257 > 100 µM | UACC-62 > 100 µM

O=CNc1ncn[nH]1
inactive: CAKI-1 > 100 µM | DU-145 > 100 µM | IGROV-1 > 100 µM | LOX IMVI > 100 µM | MCF7 > 100 µM | MDA-MB-231 > 100 µM | MDA-N > 100 µM | MOLT-4 > 100 µM | PC-3 > 100 µM | RPMI-8226 > 100 µM | RXF 393 > 100 µM | SF-295 > 100 µM | SK-MEL-28 > 100 µM | SK-OV-3 > 100 µM | SW-620 > 100 µM | T47D > 100 µM | U-251 > 100 µM | UACC-257 > 100 µM | UACC-62 > 100 µM

O=C(Nc1nn(C(=O)c2ccc(Cl)cc2)c(=O)s1)c1ccc(Cl)cc1
inactive: CAKI-1 > 100 µM | DU-145 > 100 µM | HCC 2998 > 100 µM | IGROV-1 > 100 µM | LOX IMVI > 100 µM | MCF7 > 100 µM | MDA-MB-231 > 100 µM | MDA-N > 100 µM | MOLT-4 > 100 µM | PC-3 > 100 µM | RXF 393 46.9 µM | SF-295 > 100 µM | SK-MEL-28 > 100 µM | SK-OV-3 > 100 µM | SW-620 > 100 µM | T47D > 100 µM | U-251 > 100 µM | UACC-257 > 100 µM | UACC-62 > 100 µM

CN(CO)c1nc(N(C)CO)nc(N(C)CO)n1 [TRIMELAMOL]
inactive: CAKI-1 23.8 µM | DU-145 25.7 µM | IGROV-1 23.7 µM | LOX IMVI 9.86 µM | MCF7 16.1 µM | MDA-MB-231 21.5 µM | MDA-N 20.6 µM | MOLT-4 27.2 µM | PC-3 21.8 µM | RPMI-8226 3.98 µM | RXF 393 11.6 µM | SF-295 26.8 µM | SK-MEL-28 13.6 µM | SK-OV-3 21.9 µM | SW-620 3.51 µM | T47D 32.1 µM | U-251 19.5 µM | UACC-62 13.3 µM

Reference: ChEMBL document CHEMBL1201862, “PubChem BioAssay data set” (2004)
